Experimental findings from US20140296216A1, “PYRIMIDO[4,5-D]PYRIMIDINYL COMPOUNDS, PHARMACEUTICAL COMPOSITIONS AND USES THEREOF” (GUANGZHOU INSTITUTE OF BIOMEDICINE AND HEALTH, CHINESE …, priority 2011, published 2014) are described below.

For test [1], the target named is EGFRWT (Homo sapiens, UniProt P00533). The test is described as follows: In vitro enzymatic activity assay (Z'-LYTE), wild type EGFR. In kind it is biochemical. The settings on record: Z'-LYTE FRET peptide assay; read-out: EGFRWT kinase activity (IC50). In short, it runs like this:
(§1)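 Z'-LYTE FRET coupled-enzyme format: kinase phosphorylates FRET peptide substrate, then after one hour a site-specific protease cleaves non-phosphorylated peptide. After another hour, excitation at 400 nm and emission read at 445 and 520 nm.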

Test [2] has as its target EGFRL858R (Homo sapiens, UniProt P00533, L858R). The test is described as follows: In vitro enzymatic activity assay (Z'-LYTE), EGFR L858R. In kind it is biochemical. The conditions noted are these: Z'-LYTE FRET peptide assay; read-out: EGFRL858R kinase activity (IC50). An outline of the steps: as §1
The target of test [3] is EGFRL861Q (Homo sapiens, UniProt P00533, L861Q). The test is described as follows: In vitro enzymatic activity assay (Z'-LYTE), EGFR L861Q. It counts as biochemical. The settings on record: Z'-LYTE FRET peptide assay; read-out: EGFRL861Q kinase activity (IC50). In short, it runs like this:
as §1

In test [4] the target is EGFRL858R + T790M (Homo sapiens, UniProt P00533, L858R/T790M). The test can be described thus: In vitro enzymatic activity assay (Z'-LYTE), EGFR L858R + T790M. It counts as biochemical. The settings on record: Z'-LYTE FRET peptide assay; read-out: EGFRL858R + T790M kinase activity (IC50). In short, it runs like this: as §1
Test [5] concerns H1975 cell. The test is described as follows: Effect on cell cycle by PI. In kind it is cell-based. The conditions noted are these: PI staining, 24, 48 h; FIGS. 27, 28. The protocol: Detecting the effect of the compounds on cell cycle by PI: 8×10^5 cells/well, NCI-H820, A431, HCC827, EGFR E746-A750 deletion, H1975 were plated in 6-well plates, and 24 h later, treated with the compounds at various concentrations and a control (1% DMSO) for 24, 48 h. Cells were trypsined, collected and then centrifuged for 10 minutes. The cells were re-suspended in PBS to get a suspension and then the suspension (500 g) centrifuged for 10 min; this step was repeated twice: firstly 300 uL pre-cooled PBS was added and mixed, then 700 uL pre-cooled (i.e. −20° C.) anhydrous ethanol was added and mixed, placed in −20° C. for 24 h. The mixture was 5000 rpm centrifuged for 2 min, washed by PBS twice, resuspended with 200 uL PBS (it needs to ensure the cell concentration as about […]), added RNase to achieve the final concentration of 50 ug/mL, and […] at 37° C. for 30 min. The mixture was added PI achieve the final concentration of 10 ug/mL, dyed in dark for 30 min, and then detected within 1 h.

The subject of test [6] is HCC827 (lung cancer cells, EGFR E746-A750 deletion). The test can be described thus: Cell proliferation by MTT, HCC827. In kind it is cell-based. The settings on record: Homo sapiens, HCC827, read-out: HCC827 50% inhibitory concentration (IC50), 72 h.
Test [7] deals with A431 (Human epidermal carcinoma, EGFR high expression). The test can be described thus: Cell proliferation by MTT, A431. In kind it is cell-based. The conditions noted are these: A-431, read-out: A431 50% inhibitory concentration (IC50), 72 h.
The test system of test [8] is EGFR phosphorylation in H1975 Cell. The test can be described thus: Western Blot, cell signaling pathway in H1975 cell. In kind it is cell-based. The conditions noted are these: FIG. 30. On the procedure: Conventional Western Blot (Immune blotting method) was used, wherein the method includes four steps: sample preparation, electrophoretic separation, film transfer of protein, and immuno hybridization and color display (protein detection). Sample preparation • 1. culturing cells or treating the cells with drugs; • 2. discarding mediums, washing the cells with 1×PBS twice to completely remove the mediums; • 3. adding 1×SDS sample buffer (6-well plate, 100 μl/w or 75 cm^2 plate, 500-1000 μl/bottle), scrapping the cells and transferring them to Ep tube; • 4. ultrasonic shearing DNA for 10-15 seconds to reduce the viscosity of the sample; • 5. boiling the sample for 5 minutes; • 6. centrifuging 12000 g sample for 5 minutes and taking the supernatant. […]
For orientation: A western blot detects proteins with antibodies after separation by electrophoresis.

For test [9], the system named is NCI-H820 (lung cancer cells). The test can be described thus: Cell proliferation by MTT, NCI-H820. The conditions noted are these: NCI-H820, read-out: NCI-H820 50% inhibitory concentration (IC50), 72 h. In kind it is cell-based.
Test [10] addresses T1, EGFR T790M kinase (Homo sapiens, UniProt P00533, T790M).
T1 construct: purchased invitrogen PV4803
The test is described as follows: In vitro enzymatic activity assay (Z'-LYTE), EGFR T790M. The settings on record: Z'-LYTE FRET peptide assay; read-out: EGFRT790M kinase activity (IC50). In kind it is biochemical. An outline of the steps: as §1

Test [11] relates to H1975 (lung cancer cells, EGFR L858R&T790M). The test is described as follows: Cell proliferation by MTT, H1975. It counts as cell-based. The conditions noted are these: Homo sapiens, NCI-H1975, read-out: H1975 50% inhibitory concentration (IC50), 72 h.
The test system of test [12] is H1975 cell. The test is described as follows: Effect on cell apoptosis by Annexin V. In kind it is cell-based. The conditions noted are these: PE-Annexin V, 24, 48 h; FIG. 29. On the procedure: Detecting the effect of the compounds on cell apoptosis by Annexin V: 8×10^5 cells/well, NCI-H820, A431, HCC827, EGFR E746-A750 deletion, H1975 were plated in 6-well plates, and 24 h later, treated with the compounds at various concentrations and a control (1% DMSO) for 24, 48 h. Growth medium was collected and cells were trypsined and collected correspondingly to the medium. Suspension (500 g) was centrifuged for 10 minutes. The cells were re-suspended in PBS to get a suspension and then the suspension (500 g) centrifuged for 10 min; this step was repeated twice. The cells were re-suspended in binding buffer, 5×10^5-1×10^6 cells/mL. PE-Annexin V (556421, BD Pharmingen) […] respectively. The cells were incubated for 15 min at RT in the dark. The samples were detected with FACS Calibur flow cytometer (Becton Dickinson).

The structures appear in SMILES notation.

Chain of EGFRWT (P00533 25-1210): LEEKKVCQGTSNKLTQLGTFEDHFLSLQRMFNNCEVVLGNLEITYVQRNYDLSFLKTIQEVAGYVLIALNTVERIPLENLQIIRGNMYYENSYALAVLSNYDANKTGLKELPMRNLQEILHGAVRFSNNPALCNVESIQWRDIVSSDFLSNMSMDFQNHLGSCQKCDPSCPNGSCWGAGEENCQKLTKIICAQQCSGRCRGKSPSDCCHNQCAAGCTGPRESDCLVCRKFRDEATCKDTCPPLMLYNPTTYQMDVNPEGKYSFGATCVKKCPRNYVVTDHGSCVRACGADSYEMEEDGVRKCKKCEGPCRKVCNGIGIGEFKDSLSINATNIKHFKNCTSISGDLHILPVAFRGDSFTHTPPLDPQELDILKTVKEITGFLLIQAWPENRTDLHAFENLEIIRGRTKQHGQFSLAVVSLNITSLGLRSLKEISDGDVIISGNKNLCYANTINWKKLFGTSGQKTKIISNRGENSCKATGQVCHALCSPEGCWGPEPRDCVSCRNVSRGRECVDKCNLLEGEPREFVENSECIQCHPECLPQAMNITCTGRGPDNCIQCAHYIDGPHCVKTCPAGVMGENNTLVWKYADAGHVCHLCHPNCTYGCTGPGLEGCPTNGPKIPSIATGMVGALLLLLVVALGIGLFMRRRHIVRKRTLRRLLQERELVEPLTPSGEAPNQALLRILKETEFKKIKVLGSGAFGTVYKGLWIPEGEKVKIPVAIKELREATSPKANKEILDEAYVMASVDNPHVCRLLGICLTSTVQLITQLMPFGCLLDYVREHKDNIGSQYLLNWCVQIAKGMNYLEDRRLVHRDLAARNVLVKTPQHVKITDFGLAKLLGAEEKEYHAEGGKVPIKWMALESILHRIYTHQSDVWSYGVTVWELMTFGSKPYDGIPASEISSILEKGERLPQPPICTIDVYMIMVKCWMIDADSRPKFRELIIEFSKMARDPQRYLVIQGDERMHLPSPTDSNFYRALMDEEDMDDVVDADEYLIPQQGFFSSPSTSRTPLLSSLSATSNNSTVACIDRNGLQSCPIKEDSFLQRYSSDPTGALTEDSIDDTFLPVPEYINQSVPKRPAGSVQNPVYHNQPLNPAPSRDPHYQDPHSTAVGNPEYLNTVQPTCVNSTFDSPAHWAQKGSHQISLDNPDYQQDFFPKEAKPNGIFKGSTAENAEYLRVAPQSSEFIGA
Chain of EGFRL858R + T790M (P00533 25-1210 T790M/L858R): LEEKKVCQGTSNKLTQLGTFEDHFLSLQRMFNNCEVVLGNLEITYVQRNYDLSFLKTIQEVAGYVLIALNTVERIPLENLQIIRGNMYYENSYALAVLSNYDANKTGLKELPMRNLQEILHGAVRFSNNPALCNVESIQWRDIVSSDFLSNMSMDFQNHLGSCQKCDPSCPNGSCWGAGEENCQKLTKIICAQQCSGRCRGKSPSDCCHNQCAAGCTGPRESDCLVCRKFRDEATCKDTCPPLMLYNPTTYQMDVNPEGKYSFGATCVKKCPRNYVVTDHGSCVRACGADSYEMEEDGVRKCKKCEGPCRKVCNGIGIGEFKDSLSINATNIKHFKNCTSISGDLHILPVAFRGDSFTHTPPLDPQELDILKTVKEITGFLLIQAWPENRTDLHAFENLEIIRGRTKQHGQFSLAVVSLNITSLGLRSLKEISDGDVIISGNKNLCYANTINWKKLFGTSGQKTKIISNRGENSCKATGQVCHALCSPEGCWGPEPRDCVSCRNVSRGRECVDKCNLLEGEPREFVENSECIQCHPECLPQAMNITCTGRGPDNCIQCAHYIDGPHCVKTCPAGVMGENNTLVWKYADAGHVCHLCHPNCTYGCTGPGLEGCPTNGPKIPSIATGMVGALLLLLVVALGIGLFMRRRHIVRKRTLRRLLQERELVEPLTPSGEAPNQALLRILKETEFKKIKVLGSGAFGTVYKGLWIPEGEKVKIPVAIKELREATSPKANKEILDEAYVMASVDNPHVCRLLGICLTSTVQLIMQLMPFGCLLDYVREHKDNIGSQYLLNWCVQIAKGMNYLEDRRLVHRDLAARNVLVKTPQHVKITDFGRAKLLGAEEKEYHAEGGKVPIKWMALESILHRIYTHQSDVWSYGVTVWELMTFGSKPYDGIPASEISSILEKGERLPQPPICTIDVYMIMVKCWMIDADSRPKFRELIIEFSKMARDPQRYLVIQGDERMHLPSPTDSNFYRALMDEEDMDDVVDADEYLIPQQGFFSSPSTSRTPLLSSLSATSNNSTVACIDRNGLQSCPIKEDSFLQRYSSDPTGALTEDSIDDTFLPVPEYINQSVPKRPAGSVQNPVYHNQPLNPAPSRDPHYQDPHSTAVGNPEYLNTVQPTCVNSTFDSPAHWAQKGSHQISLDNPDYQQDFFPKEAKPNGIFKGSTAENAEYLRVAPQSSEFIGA
Chain of EGFRL861Q (P00533 25-1210 L861Q): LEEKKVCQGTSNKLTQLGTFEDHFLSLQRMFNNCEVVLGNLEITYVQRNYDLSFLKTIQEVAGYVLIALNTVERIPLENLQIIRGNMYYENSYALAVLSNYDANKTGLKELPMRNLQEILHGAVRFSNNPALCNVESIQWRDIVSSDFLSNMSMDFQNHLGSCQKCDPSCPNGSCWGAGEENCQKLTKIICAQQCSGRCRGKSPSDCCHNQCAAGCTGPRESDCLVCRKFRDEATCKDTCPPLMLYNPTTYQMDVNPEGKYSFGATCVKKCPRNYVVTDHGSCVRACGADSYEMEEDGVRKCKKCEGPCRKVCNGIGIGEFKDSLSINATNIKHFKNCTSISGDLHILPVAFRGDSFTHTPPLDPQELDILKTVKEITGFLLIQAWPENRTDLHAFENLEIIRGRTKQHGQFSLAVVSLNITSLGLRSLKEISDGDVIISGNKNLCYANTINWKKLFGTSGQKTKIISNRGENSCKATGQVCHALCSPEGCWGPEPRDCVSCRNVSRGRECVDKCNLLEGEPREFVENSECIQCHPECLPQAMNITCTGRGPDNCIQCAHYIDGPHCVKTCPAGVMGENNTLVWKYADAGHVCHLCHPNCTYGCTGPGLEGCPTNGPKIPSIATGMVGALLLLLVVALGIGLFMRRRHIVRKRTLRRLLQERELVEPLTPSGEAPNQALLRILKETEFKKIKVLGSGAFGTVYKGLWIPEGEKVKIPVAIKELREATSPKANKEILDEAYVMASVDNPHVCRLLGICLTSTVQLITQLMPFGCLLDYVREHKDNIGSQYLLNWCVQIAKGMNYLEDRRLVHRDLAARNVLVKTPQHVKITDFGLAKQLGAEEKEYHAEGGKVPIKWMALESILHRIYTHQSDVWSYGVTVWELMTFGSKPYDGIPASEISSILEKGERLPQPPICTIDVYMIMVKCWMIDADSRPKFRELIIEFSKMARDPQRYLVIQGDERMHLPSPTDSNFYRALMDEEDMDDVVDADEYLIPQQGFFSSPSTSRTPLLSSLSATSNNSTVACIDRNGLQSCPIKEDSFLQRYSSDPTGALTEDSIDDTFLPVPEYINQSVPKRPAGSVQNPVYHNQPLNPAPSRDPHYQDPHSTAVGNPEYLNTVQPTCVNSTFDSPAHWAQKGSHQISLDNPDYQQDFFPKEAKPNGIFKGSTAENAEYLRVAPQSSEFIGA
T1 sequence (P00533 25-1210 T790M): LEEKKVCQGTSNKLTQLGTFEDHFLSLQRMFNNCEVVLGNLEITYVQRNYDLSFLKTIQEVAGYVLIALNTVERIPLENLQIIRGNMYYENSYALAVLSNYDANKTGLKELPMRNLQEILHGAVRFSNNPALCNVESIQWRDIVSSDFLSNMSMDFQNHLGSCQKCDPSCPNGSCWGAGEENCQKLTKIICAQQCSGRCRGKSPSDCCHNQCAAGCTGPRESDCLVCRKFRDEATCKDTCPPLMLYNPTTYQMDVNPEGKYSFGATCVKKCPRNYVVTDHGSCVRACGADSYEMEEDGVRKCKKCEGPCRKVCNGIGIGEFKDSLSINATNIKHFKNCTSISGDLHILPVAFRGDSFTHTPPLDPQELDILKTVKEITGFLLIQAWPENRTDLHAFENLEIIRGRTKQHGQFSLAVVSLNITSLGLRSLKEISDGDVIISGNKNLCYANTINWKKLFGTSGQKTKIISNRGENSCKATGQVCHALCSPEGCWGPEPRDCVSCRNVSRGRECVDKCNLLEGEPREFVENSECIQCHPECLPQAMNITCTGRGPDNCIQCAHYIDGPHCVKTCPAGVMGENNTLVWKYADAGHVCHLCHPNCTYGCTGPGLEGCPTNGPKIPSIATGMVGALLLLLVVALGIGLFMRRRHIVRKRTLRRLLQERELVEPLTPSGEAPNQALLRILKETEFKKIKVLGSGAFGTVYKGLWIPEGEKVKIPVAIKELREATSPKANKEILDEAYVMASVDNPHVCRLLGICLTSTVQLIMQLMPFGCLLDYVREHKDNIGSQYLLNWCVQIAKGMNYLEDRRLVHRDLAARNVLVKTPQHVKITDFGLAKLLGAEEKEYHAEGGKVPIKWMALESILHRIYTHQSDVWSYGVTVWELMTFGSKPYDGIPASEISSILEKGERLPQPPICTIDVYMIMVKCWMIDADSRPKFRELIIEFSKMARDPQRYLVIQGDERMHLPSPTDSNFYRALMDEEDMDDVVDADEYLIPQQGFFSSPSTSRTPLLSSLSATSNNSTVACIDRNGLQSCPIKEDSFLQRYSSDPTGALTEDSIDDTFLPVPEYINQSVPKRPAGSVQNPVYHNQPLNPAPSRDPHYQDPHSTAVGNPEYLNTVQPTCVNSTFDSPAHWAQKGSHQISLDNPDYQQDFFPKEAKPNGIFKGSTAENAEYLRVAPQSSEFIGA

For the compound `C=CC(=O)Nc1cccc(N2C(=O)N(C)Cc3cnc(Nc4ccc(N5CCN(C)CC5)cc4OC)nc32)c1` [C-EGF06, N-(3-(7-(2-methoxy-4-(4-methylpiperazin-1-yl)phenylamino)-3-methyl-2-oxo-3,4-dihydropyrimido[4,5-d]pyrimidin-1(2H)-yl)phenyl)acrylamide], the IC50 in [1] was ≤ 10 nM; in test [2] it was ≤ 10 nM; in test [3], ≤ 10 nM; in test [4], ≤ 10 nM; in [6], 52 nM; in [7], 2930 nM. Also, the IC50 in test [9] is > 100000 nM; in [10], ≤ 10 nM; in [11], 85 nM. The cell cycle arrest result in test [5] is recorded as “significantly induce”. The EGFR phosphorylation arrest result in [8] is given as “significantly induce EGFR phosphorylation arrest”. In test [8], the downstream pathway phosphorylation result was “further block”. Besides, the cell apoptosis result in test [12] was “significantly induce”.
